Measured values: patent publication US20230085307A1, “PYRIDAZINONE COMPOUND AND HERBICIDE” (NISSAN CHEMICAL CORPORATION, priority 2019, published 2023)

Tests used:
[1] = tested on: lambsquarters; experiment: Test Example 5: herbicidal effect by foliage application, plastic box (Table 20, symbol O); type: in vivo, lambsquarters (Chenopodium album)
Summary of the method: (§1)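 Foliar spray test: emulsion formulation diluted in water to a set application rate, sprayed onto 14-day-old plants raised in diluvial soil at 25° C to 30° C under glass. Both herbicidal effect and crop effect rated visually three weeks later.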

[2] = tested on: windgrass; experiment: Test Example 4: herbicidal effect by soil treatment (Table 19, symbol L); type: in vivo, windgrass (Apera spica-venti); conditions: amount of applied herbicide 320 g/ha
Summary of the method: (§2)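 Herbicidal effect was rated 3 weeks after treatment, using the scoring criteria of an earlier test. The compound, formulated as an emulsion and diluted in water to a set herbicide amount, had been sprayed uniformly on soil over freshly sown seeds. Growth took place in a greenhouse at 25° C. to 30° C.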

[3] = tested on: green foxtail; experiment: Test Example 5: herbicidal effect by foliage application, plastic box (Table 20, symbol G); type: in vivo, green foxtail (Setaria viridis)
Summary of the method: as §1

[4] = tested on: Japanese bulrush; experiment: Test Example 1: herbicidal activity, application before weed generation under submerged conditions (Table 16, symbol B); type: in vivo, Japanese bulrush (Schoenoplectus juncoides); conditions: amount of applied herbicide 320 g/ha
Summary of the method: (§3)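 Emulsion formulation, water-diluted to set dose, was put onto the flooded surface (4 cm depth, alluvial soil) the same day weeds were sown and 2.5-leaf rice transplanted. After 3 weeks at 25-30 °C under glass, each species was rated 0 (≤5% kill) to 5 (≥90% kill).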

[5] = tested on: lambsquarters; experiment: Test Example 4: herbicidal effect by soil treatment (Table 19, symbol O); type: in vivo, lambsquarters (Chenopodium album); conditions: amount of applied herbicide 320 g/ha
Summary of the method: as §2

[6] = tested on: redroot pigweed; experiment: Test Example 4: herbicidal effect by soil treatment (Table 19, symbol N); type: in vivo, redroot pigweed (Amaranthus retroflexus); conditions: amount of applied herbicide 320 g/ha
Summary of the method: as §2

[7] = tested on: barnyard grass; experiment: Test Example 5: herbicidal effect by foliage application, plastic box (Table 20, symbol H); type: in vivo, barnyard grass (Echinochloa crus-galli)
Summary of the method: as §1

[8] = tested on: southern crabgrass; experiment: Test Example 4: herbicidal effect by soil treatment (Table 19, symbol F); type: in vivo, southern crabgrass (Digitaria ciliaris); conditions: amount of applied herbicide 320 g/ha
Summary of the method: as §2

[9] = tested on: velvetleaf; experiment: Test Example 5: herbicidal effect by foliage application, plastic box (Table 20, symbol M); type: in vivo, velvetleaf (Abutilon theophrasti)
Summary of the method: as §1

[10] = tested on: persian speedwell; experiment: Test Example 4: herbicidal effect by soil treatment (Table 19, symbol R); type: in vivo, Persian speedwell (Veronica persica); conditions: amount of applied herbicide 320 g/ha
Summary of the method: as §2

[11] = tested on: Italian ryegrass; experiment: Test Example 4: herbicidal effect by soil treatment (Table 19, symbol K); type: in vivo, Italian ryegrass (Lolium multiflorum); conditions: amount of applied herbicide 320 g/ha
Summary of the method: as §2

[12] = tested on: wild oat; experiment: Test Example 5: herbicidal effect by foliage application, plastic box (Table 20, symbol I); type: in vivo, wild oat (Avena fatua)
Summary of the method: as §1

[13] = tested on: wild oat; experiment: Test Example 4: herbicidal effect by soil treatment (Table 19, symbol I); type: in vivo, wild oat (Avena fatua); conditions: amount of applied herbicide 320 g/ha
Summary of the method: as §2

[14] = tested on: rice flat sedge; experiment: Test Example 3: herbicidal effect by foliage application, Wagner pot (Table 18, symbol E); type: in vivo, rice flat sedge (Cyperus iria); conditions: 320 g/ha
Summary of the method: (§4)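 Plants were sown in alluvial soil held under 0.1–0.5 cm standing water and grown 14 days in a greenhouse at 25–30 °C. An emulsifiable formulation, water-diluted to the set dose, was then sprayed onto the foliage, and effects were scored three weeks later using previously defined criteria.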

[15] = tested on: velvetleaf; experiment: Test Example 4: herbicidal effect by soil treatment (Table 19, symbol M); type: in vivo, velvetleaf (Abutilon theophrasti); conditions: amount of applied herbicide 320 g/ha
Summary of the method: as §2

[16] = tested on: Chinese sprangletop; experiment: Test Example 3: herbicidal effect by foliage application, Wagner pot (Table 18, symbol D); type: in vivo, chinese sprangletop (Leptochloa chinensis); conditions: 320 g/ha
Summary of the method: as §4

[17] = tested on: blackgrass; experiment: Test Example 4: herbicidal effect by soil treatment (Table 19, symbol J); type: in vivo, blackgrass (Alopecurus myosuroides); conditions: amount of applied herbicide 320 g/ha
Summary of the method: as §2

[18] = tested on: false cleavers; experiment: Test Example 5: herbicidal effect by foliage application, plastic box (Table 20, symbol Q); type: in vivo, false cleavers (Galium spurium)
Summary of the method: as §1

[19] = tested on: southern crabgrass; experiment: Test Example 5: herbicidal effect by foliage application, plastic box (Table 20, symbol F); type: in vivo, southern crabgrass (Digitaria ciliaris)
Summary of the method: as §1

[20] = tested on: persian speedwell; experiment: Test Example 5: herbicidal effect by foliage application, plastic box (Table 20, symbol R); type: in vivo, Persian speedwell (Veronica persica)
Summary of the method: as §1

[21] = tested on: false cleavers; experiment: Test Example 4: herbicidal effect by soil treatment (Table 19, symbol Q); type: in vivo, false cleavers (Galium spurium); conditions: amount of applied herbicide 320 g/ha
Summary of the method: as §2

[22] = tested on: windgrass; experiment: Test Example 5: herbicidal effect by foliage application, plastic box (Table 20, symbol L); type: in vivo, windgrass (Apera spica-venti)
Summary of the method: as §1

[23] = tested on: blackgrass; experiment: Test Example 5: herbicidal effect by foliage application, plastic box (Table 20, symbol J); type: in vivo, blackgrass (Alopecurus myosuroides)
Summary of the method: as §1

[24] = tested on: chickweed; experiment: Test Example 5: herbicidal effect by foliage application, plastic box (Table 20, symbol P); type: in vivo, common chickweed (Stellaria media)
Summary of the method: as §1

[25] = tested on: chickweed; experiment: Test Example 4: herbicidal effect by soil treatment (Table 19, symbol P); type: in vivo, common chickweed (Stellaria media); conditions: amount of applied herbicide 320 g/ha
Summary of the method: as §2

[26] = tested on: green foxtail; experiment: Test Example 4: herbicidal effect by soil treatment (Table 19, symbol G); type: in vivo, green foxtail (Setaria viridis); conditions: amount of applied herbicide 320 g/ha
Summary of the method: as §2

[27] = tested on: oval-leafed pondweed; experiment: Test Example 1: herbicidal activity, application before weed generation under submerged conditions (Table 16, symbol C); type: in vivo, oval-leafed pondweed (Monochoria vaginalis); conditions: amount of applied herbicide 320 g/ha
Summary of the method: as §3

[28] = tested on: barnyard grass; experiment: Test Example 4: herbicidal effect by soil treatment (Table 19, symbol H); type: in vivo, barnyard grass (Echinochloa crus-galli); conditions: amount of applied herbicide 320 g/ha
Summary of the method: as §2

[29] = tested on: redroot pigweed; experiment: Test Example 5: herbicidal effect by foliage application, plastic box (Table 20, symbol N); type: in vivo, redroot pigweed (Amaranthus retroflexus)
Summary of the method: as §1

[30] = tested on: Italian ryegrass; experiment: Test Example 5: herbicidal effect by foliage application, plastic box (Table 20, symbol K); type: in vivo, Italian ryegrass (Lolium multiflorum)
Summary of the method: as §1

[31] = tested on: barnyard grass; experiment: Test Example 3: herbicidal effect by foliage application, Wagner pot (Table 18, symbol H); type: in vivo, barnyard grass (Echinochloa crus-galli); conditions: 320 g/ha
Summary of the method: as §4

[32] = tested on: late watergrass; experiment: Test Example 1: herbicidal activity, application before weed generation under submerged conditions (Table 16, symbol A); type: in vivo, late watergrass (Echinochloa oryzicola); conditions: amount of applied herbicide 320 g/ha
Summary of the method: as §3

[33] = foliage application, 320 g/ha, three weeks after application
[34] = amount of applied herbicide 320 g/ha, foliage application after 14-day growth, evaluated three weeks after application

SMILES | L: windgrass, herbicidal effect grade [2] | Herbicidal effect, B: Japanese bulrush [4] | O: lambsquarters, herbicidal effect grade [5] | N: redroot pigweed, herbicidal effect grade [6] | F: southern crabgrass, herbicidal effect grade [8] | R: persian speedwell, herbicidal effect grade [10] | K: Italian ryegrass, herbicidal effect grade [11] | I: wild oat, herbicidal effect grade [13] | herbicidal effect on rice flat sedge (E) [14] | M: velvetleaf, herbicidal effect grade [15] | herbicidal effect on Chinese sprangletop (D) [16] | J: blackgrass, herbicidal effect grade [17] | Q: false cleavers, herbicidal effect grade [21] | P: chickweed, herbicidal effect grade [25] | G: green foxtail, herbicidal effect grade [26] | Herbicidal effect, C: oval-leafed pondweed [27] | H: barnyard grass, herbicidal effect grade [28] | herbicidal effect on barnyard grass (H) [31] | Herbicidal effect, A: late watergrass [32] | further results
CCCC(=O)Oc1c(C)nn(C)c(=O)c1-c1c(-c2ccc(SC)cc2)sc2cc(OC)ccc12 [3-075] | 0 (Herbicidal rate of 5% or less (almost no effect)) | 1 (Herbicidal rate of 5% or more and less than 20%) | 3 (Herbicidal rate of 40% or more and less than 70%) | 3 (Herbicidal rate of 40% or more and less than 70%) | 0 (Herbicidal rate of 5% or less (almost no effect)) | 4 (Herbicidal rate of 70% or more and less than 90%) | 0 (Herbicidal rate of 5% or less (almost no effect)) | 0 (Herbicidal rate of 5% or less (almost no effect)) | 3 (Herbicidal rate of 40% or more and less than 70%) | 0 (Herbicidal rate of 5% or less (almost no effect)) | 3 (Herbicidal rate of 40% or more and less than 70%) | 0 (Herbicidal rate of 5% or less (almost no effect)) | 0 (Herbicidal rate of 5% or less (almost no effect)) | 2 (Herbicidal rate of 20% or more and less than 40%) | 0 (Herbicidal rate of 5% or less (almost no effect)) | 2 (Herbicidal rate of 20% or more and less than 40%) | 0 (Herbicidal rate of 5% or less (almost no effect)) | 0 (Herbicidal rate of 5% or less (almost no effect)) | 1 (Herbicidal rate of 5% or more and less than 20%) | O: lambsquarters, herbicidal effect grade [1, 33]: 4 (Herbicidal rate of 70% or more and less than 90%); G: green foxtail, herbicidal effect grade [3, 33]: 3 (Herbicidal rate of 40% or more and less than 70%); H: barnyard grass, herbicidal effect grade [7, 33]: 3 (Herbicidal rate of 40% or more and less than 70%); M: velvetleaf, herbicidal effect grade [9, 33]: 0 (Herbicidal rate of 5% or less (almost no effect)); I: wild oat, herbicidal effect grade [12, 33]: 0 (Herbicidal rate of 5% or less (almost no effect)); Q: false cleavers, herbicidal effect grade [18, 33]: 5 (Herbicidal rate of 90% or more (almost completely withered)); F: southern crabgrass, herbicidal effect grade [19, 33]: 3 (Herbicidal rate of 40% or more and less than 70%); R: persian speedwell, herbicidal effect grade [20, 33]: 5 (Herbicidal rate of 90% or more (almost completely withered)); L: windgrass, herbicidal effect grade [22, 33]: 0 (Herbicidal rate of 5% or less (almost no effect)); J: blackgrass, herbicidal effect grade [23, 33]: 0 (Herbicidal rate of 5% or less (almost no effect)); P: chickweed, herbicidal effect grade [24, 33]: 5 (Herbicidal rate of 90% or more (almost completely withered)); N: redroot pigweed, herbicidal effect grade [29, 33]: 4 (Herbicidal rate of 70% or more and less than 90%); K: Italian ryegrass, herbicidal effect grade [30, 33]: 0 (Herbicidal rate of 5% or less (almost no effect))
CCCC(=O)Oc1c(C)nn(C)c(=O)c1-c1c(-c2ccccc2OCC)sc2cc(F)c(F)cc12 [5-017] | 2 (Herbicidal rate of 20% or more and less than 40%) | 2 (Herbicidal rate of 20% or more and less than 40%) | 4 (Herbicidal rate of 70% or more and less than 90%) | 5 (Herbicidal rate of 90% or more (almost completely withered)) | 4 (Herbicidal rate of 70% or more and less than 90%) | 5 (Herbicidal rate of 90% or more (almost completely withered)) | 0 (Herbicidal rate of 5% or less (almost no effect)) | 3 (Herbicidal rate of 40% or more and less than 70%) | 5 (Herbicidal rate of 90% or more (almost completely withered)) | 3 (Herbicidal rate of 40% or more and less than 70%) | 0 (Herbicidal rate of 5% or less (almost no effect)) | 0 (Herbicidal rate of 5% or less (almost no effect)) | 4 (Herbicidal rate of 70% or more and less than 90%) | 4 (Herbicidal rate of 70% or more and less than 90%) | 4 (Herbicidal rate of 70% or more and less than 90%) | 2 (Herbicidal rate of 20% or more and less than 40%) | 4 (Herbicidal rate of 70% or more and less than 90%) | 5 (Herbicidal rate of 90% or more (almost completely withered)) | 3 (Herbicidal rate of 40% or more and less than 70%) | Herbicidal effect by foliage application, O: lambsquarters [1, 34]: 1 (Herbicidal rate of 5% or more and less than 20%); Herbicidal effect by foliage application, G: green foxtail [3, 34]: 0 (Herbicidal rate of 5% or less (almost no effect)); Herbicidal effect by foliage application, H: barnyard grass [7, 34]: 3 (Herbicidal rate of 40% or more and less than 70%); Herbicidal effect by foliage application, M: velvetleaf [9, 34]: 4 (Herbicidal rate of 70% or more and less than 90%); Herbicidal effect by foliage application, I: wild oat [12, 34]: 3 (Herbicidal rate of 40% or more and less than 70%); Herbicidal effect by foliage application, Q: false cleavers [18, 34]: 5 (Herbicidal rate of 90% or more (almost completely withered)); Herbicidal effect by foliage application, F: southern crabgrass [19, 34]: 1 (Herbicidal rate of 5% or more and less than 20%); Herbicidal effect by foliage application, R: persian speedwell [20, 34]: 5 (Herbicidal rate of 90% or more (almost completely withered)); Herbicidal effect by foliage application, L: windgrass [22, 34]: 3 (Herbicidal rate of 40% or more and less than 70%); Herbicidal effect by foliage application, J: blackgrass [23, 34]: 4 (Herbicidal rate of 70% or more and less than 90%); Herbicidal effect by foliage application, P: chickweed [24, 34]: 5 (Herbicidal rate of 90% or more (almost completely withered)); Herbicidal effect by foliage application, N: redroot pigweed [29, 34]: 2 (Herbicidal rate of 20% or more and less than 40%); Herbicidal effect by foliage application, K: Italian ryegrass [30, 34]: 0 (Herbicidal rate of 5% or less (almost no effect))
